Experimental data: ChEMBL document CHEMBL5046249, “Synthesis, biological evaluation and cellular localization study of fluorescent derivatives of Jiyuan Oridonin A” (Eur J Med Chem, 2022)
The source made the active and inactive calls. The calls are words filed in the database; no cut-off is given here.

Legend:
HGC-27 [1] = test: Induction of apoptosis in human HGC-27 cells assessed as increase in total apoptotic cells by Hoechst 33342 staining based fluorescence assay; assay type: functional, cell-based; conditions: dose 0.5-2 µM
SW1990 = test: Antiproliferative activity against human SW1990 cells assessed as inhibition of cell growth measured after 72 hrs by SRB assay; assay type: functional, cell-based; conditions: SW1990, 72 h
[2] = Drug localization in nucleus of human HGC-27 cells at 2 uM incubated for 1 hr by DAPI staining based confocal laser microscopic analysis; assay type: ADME, cell-based; conditions: hgc-27, 1 h
HGC-27 [3] = test: Antimigratory activity against human HGC-27 cells assessed as inhibition of cell migration measured after 24 hrs by cell scratch assay; assay type: functional, cell-based; conditions: dose microM <=2, time 24.0 hrs
HGC-27 [4] = test: Induction of apoptosis in human HGC-27 cells assessed as increase in Bax expression upto 2 uM measured after 24 hrs by Western blot analysis; assay type: functional, cell-based; conditions: dose microM <=2, time 24.0 hrs
HGC-27 [5] = test: Induction of apoptosis in human HGC-27 cells assessed as increase in cleaved caspase-9 expression upto 2 uM measured after 24 hrs by Western blot analysis; assay type: functional, cell-based; conditions: dose microM <=2, time 24.0 hrs
[6] = Drug uptake in human HGC-27 cells assessed as increase in fluorescence intensity of green signal at 8 uM measured after 1 hr by fluorescence microscopic analysis; assay type: ADME, cell-based; conditions: hgc-27, 1 h
HGC-27 [7] = test: Induction of apoptosis in human HGC-27 cells assessed as decrease in Bcl-2 expression upto 2 uM measured after 24 hrs by Western blot analysis; assay type: functional, cell-based; conditions: dose microM <=2, time 24.0 hrs
[8] = Cytotoxicity against human GES1 cells assessed as inhibition of cell growth measured after 72 hrs by SRB assay; assay type: toxicity, cell-based
HGC-27 [9] = test: Induction of apoptosis in human HGC-27 cells assessed as increase in cytochrome-c expression upto 2 uM measured after 24 hrs by Western blot analysis; assay type: functional, cell-based; conditions: dose microM <=2, time 24.0 hrs
[10] = Drug uptake in human HGC-27 cells assessed as increase in fluorescence intensity by fluorescence microscopic analysis; assay type: ADME, cell-based; conditions: dose 2-8 µM, time <=60 min
[11] = Drug localization in mitochondria of human HGC-27 cells at 2 uM incubated for 1 hr by Mitotracker red dye based confocal laser microscopy analysis; assay type: ADME; conditions: hgc-27, 1 h
TE-1 = test: Antiproliferative activity against human TE-1 cells assessed as inhibition of cell growth measured after 72 hrs by SRB assay; assay type: functional, cell-based; conditions: TE-1, 72 h
PC-3 = test: Antiproliferative activity against human PC-3 cells assessed as inhibition of cell growth measured after 72 hrs by SRB assay; assay type: functional, cell-based; conditions: PC-3, 72 h
HGC-27 [12] = test: Induction of apoptosis in human HGC-27 cells assessed as enhance brightness of fluorescence at 0.5 to 2 uM by Hoechst 33342 staining based fluorescence assay; assay type: functional, cell-based; conditions: dose 0.5-2 µM
HGC-27 [13] = test: Induction of apoptosis in human HGC-27 cells assessed as increase in cleaved caspase-3 expression upto 2 uM measured after 24 hrs by Western blot analysis; assay type: functional, cell-based; conditions: dose microM <=2, time 24.0 hrs
HGC-27 [14] = test: Induction of mitochondrial membrane potential loss in human HGC-27 cells assessed as decrease in red fluorescence intensity upto 2 uM incubated for 24 hrs by TMRM dye based flow cytometric analysis; assay type: functional, cell-based; conditions: dose microM <=2, time 24.0 hrs
HGC-27 [15] = test: Induction of apoptosis in human HGC-27 cells assessed as nuclear rupture at 0.5 to 2 uM by Hoechst 33342 staining based fluorescence assay; assay type: functional, cell-based; conditions: dose 0.5-2 µM
HGC-27 [16] = test: Induction of apoptosis in human HGC-27 cells assessed as nuclear cohesion at 0.5 to 2 uM by Hoechst 33342 staining based fluorescence assay; assay type: functional, cell-based; conditions: dose 0.5-2 µM
MGC-803 = test: Antiproliferative activity against human MGC-803 cells assessed as inhibition of cell growth measured after 72 hrs by SRB assay; assay type: functional, cell-based; conditions: MGC-803, 72 h
HGC-27 [17] = test: Antiproliferative activity against human HGC-27 cells assessed as inhibition of cell growth measured after 72 hrs by SRB assay; assay type: functional, cell-based; conditions: HGC-27, 72 h
HGC-27 [18] = test: Inhibition of colony formation in human HGC-27 cells measured for 24 hrs by crystal violet staining based assay; assay type: functional, cell-based; conditions: dose microM <=2, time 24.0 hrs

Row | IC50 (SW1990) [µM] | Drug uptake [6] | IC50 (PC-3) [µM] | IC50 (MGC-803) [µM] | Compound | IC50 (TE-1) [µM] | IC50 (HGC-27 [17]) [µM] | also measured
1 | 0.86 | Active | 0.68 | 0.64 | C=C1C(=O)[C@]23[C@H](O)[C@H]1C[C@H](O)[C@H]2[C@]12CCCC(C)(C)[C@H]1C[C@H]3O[C@H]2OCCCCCc1cn(CCOCCOCCOCCN2C(=O)c3cccc4c(N5CCCCC5)ccc(c34)C2=O)nn1 | 0.73 | 0.39 | Activity (HGC-27 [1]): Active; Drug uptake [2]: Not Active; Activity (HGC-27 [3]): Dose-Dependent Effect; Activity (HGC-27 [4]): Active; Activity (HGC-27 [5]): Active; Activity (HGC-27 [7]): Active; IC50 at 72 h [8]: 18.1 µM; Activity (HGC-27 [9]): Active; Drug uptake [10]: Dose-Dependent Effect and Tde; Drug uptake [11]: Active; Activity (HGC-27 [12]): Active; Activity (HGC-27 [13]): Active; Activity (HGC-27 [14]): Active; Activity (HGC-27 [15]): Active; Activity (HGC-27 [16]): Active; Activity (HGC-27 [18]): Dose-Dependent Effect
2 | > 32 | Not Active | > 32 | > 32 | O=C1c2cccc3c(N4CCCCC4)ccc(c23)C(=O)N1CCOCCOCCOCCn1cc(CCCO)nn1 | > 32 | > 32 | 
3 | 7.36 | Not Active | 8.43 | 7.19 | C=C1C(=O)[C@]23[C@H](O)[C@H]1C[C@H](O)[C@H]2[C@]12CCCC(C)(C)[C@H]1C[C@H]3O[C@H]2O | 8.82 | 4.98 | 

The next lines start with the molecule.

Row | Compound | IC50 (SW1990) [µM] | Drug uptake [6] | IC50 (PC-3) [µM] | IC50 (MGC-803) [µM] | IC50 (TE-1) [µM] | IC50 (HGC-27 [17]) [µM] | also measured
4 | [N-]=[N+]=NCCCCCN1C(=O)c2cccc3c(N4CCCCC4)ccc(c23)C1=O | > 32 |  | > 32 | > 32 | > 32 | > 32 | 
5 | [N-]=[N+]=NCCOCCOCCOCCN1C(=O)c2cccc3c(N4CCCCC4)ccc(c23)C1=O | > 32 |  | > 32 | > 32 | > 32 | > 32 | 
